In publication PMC9586930, “Molecular insights into the distinct signaling duration for the peptide-induced PTH1R activation” (Nature Communications, 2022):
Numbering of substitutions follows the chain as printed.

Columns and labels:
Conditions in all cases: for ΔpEC50±SEM: relative to WT, n = 3 in triplicate; for ΔpEC50±SEM / Span±SEM: mean ± SEM; for Span±SEM: window between maximal response (Emax) and vehicle, n = 3
PTH1R Q440A mutant = target: T1, PTH1R Q440A mutant (Homo sapiens, UniProt Q03431, Q440A); assay: cAMP accumulation assay (GloSensor), PTH1R Q440A; format: cell-based
T1 construct: a flag-tag was fused to the N terminal of full-length PTH1R (WT or mutant); expressed in transfected cells; host or cells: HEK293T
T1 sequence (Q03431 27-593 Q440A): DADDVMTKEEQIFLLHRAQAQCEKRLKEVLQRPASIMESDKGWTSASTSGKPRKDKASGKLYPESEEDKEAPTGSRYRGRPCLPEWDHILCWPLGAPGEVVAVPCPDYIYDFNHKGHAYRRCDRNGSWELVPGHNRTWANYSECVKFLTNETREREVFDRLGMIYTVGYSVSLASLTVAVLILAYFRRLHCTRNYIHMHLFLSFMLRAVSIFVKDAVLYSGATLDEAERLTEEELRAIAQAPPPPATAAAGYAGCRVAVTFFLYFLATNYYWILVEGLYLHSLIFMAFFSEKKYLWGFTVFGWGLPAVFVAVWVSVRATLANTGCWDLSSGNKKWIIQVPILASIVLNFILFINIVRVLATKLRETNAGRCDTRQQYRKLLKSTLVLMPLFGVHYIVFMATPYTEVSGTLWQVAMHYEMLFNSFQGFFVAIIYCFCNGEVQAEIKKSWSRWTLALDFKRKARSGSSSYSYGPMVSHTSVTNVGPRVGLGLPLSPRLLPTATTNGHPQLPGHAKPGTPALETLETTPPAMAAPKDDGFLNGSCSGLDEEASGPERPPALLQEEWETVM
Procedure: (§1) Human embryonic kidney 293 T (HEK293T, ATCC: CRL-1573) cells were transfected with a plasmid mixture consisting of pcDNA3.1-flag-PTH1R (WT or mutants) and the cAMP biosensor GloSensor-22F (Promega) at a ratio of 2:1 (see Supplementary Table 7 for a list of primers used in this study). After 24 h, transfected cells were plated onto a 384-well plate, which was treated with cell adherent reagent (Applygen) in advance. After another 12 h, cells were treated with Hank’s balanced salt solution for starvation and then incubated in CO2-independent media containing 4% GloSensor cAMP Reagent (Promega) at a volume of 5 μl per well and incubated for 20 min at RT before measurements for baseline luminescence (Spark Multimode microplate reader, TECAN). Next, test ligands were added at different concentrations from 10^−6 to 10^−13 M before second measurement. Finally, data were normalized to 100% of the maximal PTH (1-34) response for WT PTH1R using a sigmoidal dose-response in GraphPad Prism.
(§2) Statistical analyses were performed on at least three individual datasets and analysed using GraphPad Prism software. Bars represent differences in the calculated agonist potency (pEC50) and maximum agonist response (Emax) for each mutant relative to the WT receptor. Data are mean± s.e.m. from at least three independent experiments, performed in triplicates. ns, not significant, ^nsP > 0.01; ^*P < 0.01; ^**P < 0.001; ^***P < 0.0001 (one-way analysis of variance (ANOVA) followed by Dunnett’s test, compared with the response of the WT). For dose-response experiments, data were normalized and analyzed using nonlinear curve fitting for the log (agonist) versus response (three parameters) curves.

PTH1R T178A mutant = system: T2, PTH1R T178A mutant; assay: cAMP accumulation assay (GloSensor), PTH1R T178A; format: cell-based, human
T2 construct: a flag-tag was fused to the N terminal of full-length PTH1R (WT or mutant); expressed in transfected cells; host or cells: HEK293T
Procedure: as §1, with “After” for “Human embryonic kidney 293 T (HEK293T, ATCC: CRL-1573) cells were transfected with a plasmid mixture consisting of pcDNA3.1-flag-PTH1R (WT or mutants) and the cAMP biosensor GloSensor-22F (Promega) at a ratio of 2:1 (see Supplementary Table 7 for a list of primers used in this study). After”
as §2, with “Bars represent differences in the calculated agonist potency (pEC50) and maximum agonist response (Emax) for each mutant relative to the WT receptor.” left out

WT PTH1R = target: T3, WT PTH1R (Homo sapiens, UniProt Q03431); assay: cAMP accumulation assay (GloSensor), wild-type PTH1R; format: cell-based
T3 construct: a flag-tag was fused to the N terminal of full-length PTH1R (WT or mutant); expressed in transfected cells; host or cells: HEK293T
T3 sequence (Q03431 27-593): T1 sequence (Q03431 27-593 Q440A) with A414Q
Procedure: as §1, §2

Substance	span (from the WT) (PTH1R Q440A mutant; PTH1R Q4407.38A, replicate 1)	ΔpEC50 (from the WT) (PTH1R Q440A mutant; PTH1R Q4407.38A, replicate 1)	span (from the WT) (PTH1R Q440A mutant; PTH1R Q4407.38A, replicate 2)	ΔpEC50 (from the WT) (PTH1R Q440A mutant; PTH1R Q4407.38A, replicate 2)	span (from the WT) (PTH1R Q440A mutant; PTH1R Q4407.38A, replicate 3)	ΔpEC50 (from the WT) (PTH1R Q440A mutant; PTH1R Q4407.38A, replicate 3)	ΔpEC50±SEM (PTH1R Q440A mutant)	ΔpEC50 (from the WT) (PTH1R Q440A mutant; replicate 1)	ΔpEC50 (from the WT) (PTH1R Q440A mutant; replicate 2)	ΔpEC50 (from the WT) (PTH1R Q440A mutant; replicate 3)	Span±SEM (PTH1R Q440A mutant)	span (from the WT) (PTH1R T178A mutant; PTH1R T1781.30A, replicate 1)	ΔpEC50 (from the WT) (PTH1R T178A mutant; PTH1R T1781.30A, replicate 1)	span (from the WT) (PTH1R T178A mutant; PTH1R T1781.30A, replicate 2)	ΔpEC50 (from the WT) (PTH1R T178A mutant; PTH1R T1781.30A, replicate 2)	span (from the WT) (PTH1R T178A mutant; PTH1R T1781.30A, replicate 3)	ΔpEC50 (from the WT) (PTH1R T178A mutant; PTH1R T1781.30A, replicate 3)	ΔpEC50±SEM (PTH1R T178A mutant)	ΔpEC50 (from the WT) (PTH1R T178A mutant; replicate 1)	ΔpEC50 (from the WT) (PTH1R T178A mutant; replicate 2)	other results
H-AVAEIQLMHQRAKWIQDARRRAFLHKLIAEIHTAEI-OH [LA-PTH, long-acting PTH analog, modified PTH/PTHrP hybrid]	337.5	-0.045	279.8	-0.009	250.7	0.015	-0.01±0.02	-0.045	-0.009	0.015	289.33±25.51	104.1	-0.079	116.4	0	180.3	-0.07	-0.05±0.02	-0.079	0	ΔpEC50 (from the WT) (PTH1R T178A mutant; replicate 3): -0.07; Span±SEM (PTH1R T178A mutant): 133.60±23.62; span (from the WT) (WT PTH1R; PTH1R WT, replicate 1): 106.8; ΔpEC50 (from the WT) (WT PTH1R; PTH1R WT, replicate 1): 0; span (from the WT) (WT PTH1R; PTH1R WT, replicate 2): 118.8; ΔpEC50 (from the WT) (WT PTH1R; PTH1R WT, replicate 2): 0; span (from the WT) (WT PTH1R; PTH1R WT, replicate 3): 116.4; ΔpEC50 (from the WT) (WT PTH1R; PTH1R WT, replicate 3): 0; ΔpEC50±SEM (WT PTH1R): 0; ΔpEC50 (from the WT) (WT PTH1R; replicate 1): 0; ΔpEC50 (from the WT) (WT PTH1R; replicate 2): 0; ΔpEC50 (from the WT) (WT PTH1R; replicate 3): 0; Span±SEM (WT PTH1R): 114.00±3.67
H-AVSEHQLLHDKGKSIQDLRRRELLEKLL-{Aib}-KLHTA-NH2 [ABL, Abaloparatide, an analog of PTHrP, short-acting PTH1R agonist]	252.6	-1.026	278.7	-0.991	338	-1.125	-1.05±0.04	-1.026	-0.991	-1.125	289.77±25.27	120.4	-0.829	180.3	-0.74	96.78	-0.62	-0.73±0.06	-0.829	-0.74	ΔpEC50 (from the WT) (PTH1R T178A mutant; replicate 3): -0.62; Span±SEM (PTH1R T178A mutant): 132.49±24.86; span (from the WT) (WT PTH1R; PTH1R WT, replicate 1): 115.9; ΔpEC50 (from the WT) (WT PTH1R; PTH1R WT, replicate 1): 0; span (from the WT) (WT PTH1R; PTH1R WT, replicate 2): 122.2; ΔpEC50 (from the WT) (WT PTH1R; PTH1R WT, replicate 2): 0; span (from the WT) (WT PTH1R; PTH1R WT, replicate 3): 127.3; ΔpEC50 (from the WT) (WT PTH1R; PTH1R WT, replicate 3): 0; ΔpEC50±SEM (WT PTH1R): 0; ΔpEC50 (from the WT) (WT PTH1R; replicate 1): 0; ΔpEC50 (from the WT) (WT PTH1R; replicate 2): 0; ΔpEC50 (from the WT) (WT PTH1R; replicate 3): 0; Span±SEM (WT PTH1R): 121.80±3.30
H-SVSEIQLMHNLGKHLNSMERVEWLRKKLQDVHNF-OH [PTH, Teriparatide, human PTH 1-34, long-acting peptide agonist of PTH1R]	372.2	-0.177	273.2	-0.116	248	-0.201	-0.16±0.03	-0.177	-0.116	-0.201	297.80±37.90	113.4	-0.148	160.5	-0.301	167.8	-0.188	-0.21±0.05	-0.148	-0.301	ΔpEC50 (from the WT) (PTH1R T178A mutant; replicate 3): -0.188; Span±SEM (PTH1R T178A mutant): 147.23±17.05; Emax (WT PTH1R; HEK293T cells, from curve fitting dose-response data): 103.1 luminescence counts per 500ms; span (from the WT) (WT PTH1R; PTH1R WT, replicate 1): 125.1; ΔpEC50 (from the WT) (WT PTH1R; PTH1R WT, replicate 1): 0; span (from the WT) (WT PTH1R; PTH1R WT, replicate 2): 136.6; ΔpEC50 (from the WT) (WT PTH1R; PTH1R WT, replicate 2): 0; span (from the WT) (WT PTH1R; PTH1R WT, replicate 3): 114.9; ΔpEC50 (from the WT) (WT PTH1R; PTH1R WT, replicate 3): 0; ΔpEC50±SEM (WT PTH1R): 0; ΔpEC50 (from the WT) (WT PTH1R; replicate 1): 0; ΔpEC50 (from the WT) (WT PTH1R; replicate 2): 0; ΔpEC50 (from the WT) (WT PTH1R; replicate 3): 0; Span±SEM (WT PTH1R): 125.53±6.27
